Source: patent US6107324A, “5-HT2A receptor inverse agonists” (priority 1999, dated 2000)
Substitutions are numbered along the chain they refer to. Like-named read-outs stand apart in the source and are kept apart here.

Legend:
[1] = target: T1, constitutively active mutant human 5HT2C receptor AP-1 (Homo sapiens, UniProt P28335, S310K); assay: [35S]GTPγS binding assay, constitutively active mutant human 5HT2C receptor AP-1; type: biochemical
T1 sequence (P28335 33-458 S310K): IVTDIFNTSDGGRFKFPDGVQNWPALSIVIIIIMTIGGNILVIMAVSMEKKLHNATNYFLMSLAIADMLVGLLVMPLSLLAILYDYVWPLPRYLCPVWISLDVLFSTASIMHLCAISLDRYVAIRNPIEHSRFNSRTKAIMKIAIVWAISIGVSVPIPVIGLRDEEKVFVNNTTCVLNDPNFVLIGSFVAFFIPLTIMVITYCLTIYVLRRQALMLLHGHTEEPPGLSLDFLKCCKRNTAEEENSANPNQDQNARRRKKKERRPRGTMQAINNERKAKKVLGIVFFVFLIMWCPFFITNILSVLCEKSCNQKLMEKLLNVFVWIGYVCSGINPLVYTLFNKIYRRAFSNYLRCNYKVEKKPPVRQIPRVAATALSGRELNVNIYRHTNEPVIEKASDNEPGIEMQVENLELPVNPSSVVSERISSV

[2] = target: T2, Wild Type Human 5HT2A Receptor (Homo sapiens, UniProt P28223); assay: [3H]LSD competitive binding assay, wild type 5HT2A
T2 construct: expressed in transfected cells; host or cells: COS-7 cells, transient transfection (pCMV); membranes

[3] = test system: human mutated 5HT2A receptor, AP-3; assay: Inositol phosphate (IP3) accumulation assay, AP-3; type: cell-based; details: preferred compounds tables (μM)
[4] = target: T3, endogenous human 5-HT2C receptor (Homo sapiens, UniProt P28335)
T3 sequence (P28335 33-458): T1 sequence (P28335 33-458 S310K) with K278S

[5] = test system: Adult male Sprague-Dawley rats; assay: Amphetamine-stimulated locomotor activity in rats; type: in vivo
Excerpt: A 5HT2A receptor antagonist or inverse agonist is expected to decrease amphetamine-stimulated locomotion without affecting baseline locomotion. See, for example, Soresnon, et al, 266(2) J. Pharmacol. Exp. Ther. 684 (1993). […] For the following study, the following parameters and protocol were utilized:
Adult male Sprague-Dawley rats were utilized for these studies. Animals were housed in groups of 2-3 in hanging plastic cages with food and water available at all times. Animals were weighed and handled for at least one day prior to surgery and throughout the studies. For these studies, Vehicle consisted of 90% ethanol (100%) and 10% water.
A San Diego Instruments Flex Field apparatus was used to quantify baseline and amphetamine-stimulated locomotor activity. This apparatus consists of four 16"×16" clear plastic open fields. Photocell arrays (16 in each dimension) interfaced with a personal computer to automatically quantify activity. Several measures of activity can be assessed with the apparatus, including total photocell beam breaks. Animals (vehicle control and Compound treated) were injected s.c. 30 minutes prior to initiation of analysis. Following this 30 minute period, animals were placed individually into an open field and baseline activity was assessed for 30 minutes (habituation phase). […]

[6] = test system: 5HT2A receptor (cerebral cortex); assay: I125-LSD displacement from rat brain sections, cerebral cortex (5HT2A); type: binding, Sprague-Dawley rats; details: 1 micromolar compound, 1 nanomolar I125-LSD, 30 minutes room temperature

T2 sequence (P28223 whole entry T25N/H452Y): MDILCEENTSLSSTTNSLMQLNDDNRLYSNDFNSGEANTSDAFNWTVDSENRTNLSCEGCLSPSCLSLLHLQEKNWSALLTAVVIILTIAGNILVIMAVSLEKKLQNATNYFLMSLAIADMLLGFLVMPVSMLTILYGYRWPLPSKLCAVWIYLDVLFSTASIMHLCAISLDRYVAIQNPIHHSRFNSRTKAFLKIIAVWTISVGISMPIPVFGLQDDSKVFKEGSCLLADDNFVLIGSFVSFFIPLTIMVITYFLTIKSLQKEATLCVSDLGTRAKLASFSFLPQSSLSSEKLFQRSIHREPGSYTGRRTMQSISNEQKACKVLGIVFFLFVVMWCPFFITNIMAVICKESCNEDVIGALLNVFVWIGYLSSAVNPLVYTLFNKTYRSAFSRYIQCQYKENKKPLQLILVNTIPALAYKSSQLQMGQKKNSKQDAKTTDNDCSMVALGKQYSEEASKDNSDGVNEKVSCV

SMILES: CSc1ccc2c(c1)C(N1CCN(C)CC1)Cc1ccccc1S2 (stereo not shown) [Methiothepin]
- IC50 [1]: 20.4 nM

SMILES: CC(C)c1ccc(NC(=O)Nc2cccc(-c3nn(C)cc3Br)c2)cc1 [Compound 116110, {[3-(4-bromo-1-methylpyrazol-3-yl)phenyl]amino}-N-[4-(methylethyl)phenyl]carboxamide]
- IC50 [2]: 338 nM

SMILES: Cn1cc(Br)c(-c2cccc(NC(=O)OC(C)(C)C)c2)n1 [Compound 116192]
- IC50 [3]: 0.057 µM

SMILES: CN1CCN2c3ccccc3Cc3ccccc3C2C1 (stereo not shown) [mianserin]
- inhibition of serotonin-stimulated [35S]GTPγS binding ([4]; 30 μM (FIG. 9), FIG. 10 on Wallac scintistrips): inhibits this response
- effect on basal constitutive [35S]GTPγS binding ([4]; FIG. 10, membranes expressing endogenous human 5-HT2C receptor): partial inverse agonist
- [35S]GTPγS binding, serotonin stimulation and inhibition by mianserin ([1]; FIG. 10, AP-1 receptors in 293T cells, mianserin 30 μM, Wallac scintistrips): inhibition

SMILES: Clc1ccc2c(c1)N=C(N1CCNCC1)c1ccccc1N2 [Normethylclozapin]
- IC50 [1]: 21.4 nM

SMILES: Cn1cc(Br)c(-c2cccc(NC(=O)c3cccs3)c2)n1 [Compound 116102, N-[3-(4-bromo-1-methylpyrazol-3-yl)phenyl][2-thienyl]carboxamide]
- amphetamine-stimulated locomotion ([5]; s.c., 0.1, 1.0, 5.0, 10.0 mg/kg, d-amphetamine sulfate 1.0 mg/kg, photobeam breaks): with exception of the highest dose (10 mg/kg), in vivo, the tested doses of Compound 116102 evidenced a decrease in the amphetamine-stimulated locomotion
- dose-response pattern of locomotor activity ([5]; s.c., 0.1-10.0 mg/kg, FIGS. 17A-C): "inverted U" shaped pattern

SMILES: COc1ccc(OC(=O)Nc2cccc(-c3nn(C)cc3Br)c2)cc1 [Compound 116100, N-[3-(4-bromo-1-methylpyrazol-3-yl)phenyl][4-methoxyphenoxy]carboxamide]
- IC50 [3]: 0.0003 µM
- displacement of I125-LSD from cortex [6]: selectively displace the I^125 -LSD from the cortex (5HT2A)

SMILES: Cn1cc(Br)c(-c2cccc(NC(=O)Nc3ccc(OC(F)(F)F)cc3)c2)n1 [Compound 103487, N-[3-(4-bromo-1-methylpyrazol-3-yl)phenyl][{(4-trifluoromethoxy)phenyl}amino]carboxamide]
- inhibition at 10 µM ([1]; read-out: GTPγS AP-1 Percent Inhibition Relative To Positive Control (Primary)): -1%
- inhibition at 10 µM ([1]; read-out: GTPγS AP-1 Percent Inhibition Relative To Positive Control (Reconfirm)): 31%
